From patent US9371294B2, “Cycloalkenyl aryl derivatives for CETP inhibitor” (CHONG KUN DANG PHARMACEUTICAL CORP., priority 2011, dated 2016)

Target: T1, cholesteryl ester transfer protein (Homo sapiens, UniProt P11597)
T1 construct: As a source of cholesteryl ester transfer protein, plasma from healthy humans was used; from tissue; host or cells: plasma from healthy humans
T1 sequence (P11597 18-493): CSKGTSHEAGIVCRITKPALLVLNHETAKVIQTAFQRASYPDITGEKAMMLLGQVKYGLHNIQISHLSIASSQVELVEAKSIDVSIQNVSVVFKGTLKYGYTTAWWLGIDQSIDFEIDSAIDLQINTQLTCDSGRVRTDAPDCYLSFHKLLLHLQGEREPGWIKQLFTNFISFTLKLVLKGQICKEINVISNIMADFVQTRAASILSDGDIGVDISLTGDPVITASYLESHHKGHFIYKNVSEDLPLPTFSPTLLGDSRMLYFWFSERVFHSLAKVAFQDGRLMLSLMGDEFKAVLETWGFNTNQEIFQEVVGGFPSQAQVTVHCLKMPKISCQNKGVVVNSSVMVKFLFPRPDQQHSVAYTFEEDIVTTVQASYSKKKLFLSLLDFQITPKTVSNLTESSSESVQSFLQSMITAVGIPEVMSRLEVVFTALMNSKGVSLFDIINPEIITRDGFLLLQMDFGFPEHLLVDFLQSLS
Test: In vitro test for the ability to inhibit cholesteryl ester transfer
Assay type: biochemical
Conditions: [3H]-cholesteryl oleate transfer from rHDL-agarose to LDL; human plasma as CETP source; 37° C.; 16-10000 nM, duplicate
Outline: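 Human plasma served as the CETP source, with human LDL (0.25 mg/ml) as acceptor and agarose-immobilised recombinant HDL carrying [3H]-cholesteryl oleate (0.25 mg/ml) as donor, at 37 °C. Compounds were run in duplicate at 16–10000 nM. Transferred radioactivity in the supernatant was counted by beta detection, and IC50 was fitted from the fraction of label transferred to LDL.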

IC50	Structure (SMILES)
60 nM	COc1ccc(N(C)S(C)(=O)=O)cc1C1=C(CN2C(=O)O[C@H](c3cc(C(F)(F)F)cc(C(F)(F)F)c3)[C@@H]2C)CC(C)(C)CC1 [Compound 128, N-(3-(2-(((4S,5R)-5-(3,5-bis(trifluoromethyl)phenyl)-4-methyl-2-oxooxazolidin-3-yl)methyl)-4,4-dimethylcyclohex-1-enyl)-4-methoxyphenyl)-N-methylmethanesulfonamide]
490 nM	COc1ccc(NC(C)=O)cc1C1=C(CN2C(=O)O[C@H](c3cc(C(F)(F)F)cc(C(F)(F)F)c3)[C@@H]2C)CC(C(F)(F)F)CC1 (stereo partly drawn) [Compound 196, N-(3-(2-(((4S,5R)-5-(3,5-bis(trifluoromethyl)phenyl)-4-methyl-2-oxooxazolidin-3-yl)methyl)-4-(trifluoromethyl)cyclohex-1-enyl)-4-methoxyphenyl)acetamide]
80 nM	COc1ccc(C(C)(C)O)cc1C1=C(CN2C(=O)O[C@H](c3cc(C(F)(F)F)cc(C(F)(F)F)c3)[C@@H]2C)CCCC1 [Compound 82, (4S,5R)-5-(3,5-bis(trifluoromethyl)phenyl)-3-((2-(5-(2-hydroxypropan-2-yl)-2-methoxyphenyl)cyclohex-1-enyl)methyl)-4-methyloxazolidin-2-one]
30 nM	COc1ncc(C(F)(F)F)cc1C1=C(CN2C(=O)O[C@H](c3cc(C(F)(F)F)cc(C(F)(F)F)c3)[C@@H]2C)CC(C)(C)CC1 [Compound 316, (4S,5R)-5-(3,5-bis(trifluoromethyl)phenyl)-3-((2-(2-methoxy-5-(trifluoromethyl)pyridin-3-yl)-5,5-dimethylcyclohex-1-enyl)methyl)-4-methyloxazolidin-2-one]
7 nM	COC(=O)CC(C)(C)c1ccc(OC)c(C2=C(CN3C(=O)O[C@H](c4cc(C(F)(F)F)cc(C(F)(F)F)c4)[C@@H]3C)CC(C)(C)CC2)c1 [Compound 308, methyl 3-(3-(2-(((4S,5R)-5-(3,5-bis(trifluoromethyl)phenyl)-4-methyl-2-oxooxazolidin-3-yl)methyl)-4,4-dimethylcyclohex-1-enyl)-4-methoxyphenyl)-3-methylbutanoate]
20 nM	COc1ccc(C2(C#N)CC2)cc1C1=C(CN2C(=O)O[C@H](c3cc(C(F)(F)F)cc(C(F)(F)F)c3)[C@@H]2C)CC(C)(C)CC1 [Compound 189, 1-(3-(2-(((4S,5R)-5-(3,5-bis(trifluoromethyl)phenyl)-4-methyl-2-oxooxazolidin-3-yl)methyl)-4,4-dimethylcyclohex-1-enyl)-4-methoxyphenyl)cyclopropanecarbonitrile]
35 nM	COc1ccc(-c2nnn(C)n2)cc1C1=C(CN2C(=O)O[C@H](c3cc(C(F)(F)F)cc(C(F)(F)F)c3)[C@@H]2C)CC(C)(C)CC1 [Compound 338, (4S,5R)-5-(3,5-bis(trifluoromethyl)phenyl)-3-((2-(2-methoxy-5-(2-methyl-2H-tetrazol-5-yl)phenyl)-5,5-dimethylcyclohex-1-enyl)methyl)-4-methyloxazolidin-2-one]
20 nM	COc1cc(F)c(C(C)C)cc1C1=C(CN2C(=O)O[C@H](c3cc(C(F)(F)F)cc(C(F)(F)F)c3)[C@@H]2C)CC(F)(F)CC1 [Compound 123, (4S,5R)-5-(3,5-bis(trifluoromethyl)phenyl)-3-((5,5-difluoro-2-(4-fluoro-5-isopropyl-2-methoxyphenyl)cyclohex-1-enyl)methyl)-4-methyloxazolidin-2-one]
6 nM	COc1ccc(C(C)C)nc1C1=C(CN2C(=O)O[C@H](c3cc(C(F)(F)F)cc(C(F)(F)F)c3)[C@@H]2C)CC(C)(C)CC1 [Compound 366, (4S,5R)-5-(3,5-bis(trifluoromethyl)phenyl)-3-((2-(6-isopropyl-3-methoxypyridin-2-yl)-5,5-dimethylcyclohex-1-enyl)methyl)-4-methyloxazolidin-2-one]
810 nM	COc1cc(F)c(C(C)C)cc1C1=C(CN2C(=O)O[C@H](c3cc(C(F)(F)F)cc(C(F)(F)F)c3)[C@@H]2C)CN(C(F)(F)F)CC1 [Compound 245, (4S,5R)-5-(3,5-bis(trifluoromethyl)phenyl)-3-((4-(4-fluoro-5-isopropyl-2-methoxyphenyl)-1-(trifluoromethyl)-1,2,5,6-tetrahydropyridin-3-yl)methyl)-4-methyloxazolidin-2-one]
920 nM	COc1cc(F)c(C(C)C)cc1C1=C(CN2C(=S)O[C@H](c3cc(C(F)(F)F)cc(C(F)(F)F)c3)[C@@H]2C)CC(C)CC1 (stereo partly drawn) [Compound 26, (4S,5R)-5-(3,5-bis(trifluoromethyl)phenyl)-3-((2-(4-fluoro-5-isopropyl-2-methoxyphenyl)-5-methylcyclohex-1-enyl)methyl)-4-methyloxazolidine-2-thione]
50 nM	COc1ccc(C(OC)(C(F)(F)F)C(F)(F)F)cc1C1=C(CN2C(=O)O[C@H](c3cc(C(F)(F)F)cc(C(F)(F)F)c3)[C@@H]2C)CC(C)(C)CC1 [Compound 182, (4S,5R)-5-(3,5-bis(trifluoromethyl)phenyl)-3-((2-(5-(1,1,1,3,3,3-hexafluoro-2-methoxypropan-2-yl)-2-methoxyphenyl)-5,5-dimethylcyclohex-1-enyl)methyl)-4-methyloxazolidin-2-one]
54 nM	COC(=O)Cc1cc2c(c(C3=C(CN4C(=O)O[C@H](c5cc(C(F)(F)F)cc(C(F)(F)F)c5)[C@@H]4C)CC(C)(C)CC3)c1)OCO2 [Compound 317, methyl 2-(7-(2-(((4S,5R)-5-(3,5-bis(trifluoromethyl)phenyl)-4-methyl-2-oxooxazolidin-3-yl)methyl)-4,4-dimethylcyclohex-1-enyl)benzo[d][1,3]dioxol-5-yl)acetate]
217 nM	COc1ccc(CCC(=O)O)cc1C1=C(CN2C(=O)O[C@H](c3cc(C(F)(F)F)cc(C(F)(F)F)c3)[C@@H]2C)CC(C)(C)CC1 [Compound 273, 3-(3-(2-(((4S,5R)-5-(3,5-bis(trifluoromethyl)phenyl)-4-methyl-2-oxooxazolidin-3-yl)methyl)-4,4-dimethylcyclohex-1-enyl)-4-methoxyphenyl)propanoic acid]
100 nM	COc1cc2c(cc1C1=C(CN3C(=O)O[C@H](c4cc(C(F)(F)F)cc(C(F)(F)F)c4)[C@@H]3C)CC(C)(C)CC1)OCO2 [Compound 223, (4S,5R)-5-(3,5-bis(trifluoromethyl)phenyl)-3-((2-(6-methoxybenzo[d][1,3]dioxol-5-yl)-5,5-dimethylcyclohex-1-enyl)methyl)-4-methyloxazolidin-2-one]
104 nM	CNC(=O)C(C)(C)Cc1ccc(OC)c(C2=C(CN3C(=O)O[C@H](c4cc(C(F)(F)F)cc(C(F)(F)F)c4)[C@@H]3C)CC(C)(C)CC2)c1 [Compound 321, 3-(3-(2-(((4S,5R)-5-(3,5-bis(trifluoromethyl)phenyl)-4-methyl-2-oxooxazolidin-3-yl)methyl)-4,4-dimethylcyclohex-1-enyl)-4-methoxyphenyl)-N,2,2-trimethylpropanamide]
58 nM	COC(=O)C1(Cc2ccc(OC)c(C3=C(CN4C(=O)O[C@H](c5cc(C(F)(F)F)cc(C(F)(F)F)c5)[C@@H]4C)CC(C)(C)CC3)c2)CCCC1 [Compound 323, methyl 1-(3-(2-(((4S,5R)-5-(3,5-bis(trifluoromethyl)phenyl)-4-methyl-2-oxooxazolidin-3-yl)methyl)-4,4-dimethylcyclohex-1-enyl)-4-methoxybenzyl)cyclopentanecarboxylate]
